Where two headings read alike, the source gives them in different places.
Key:
α1B-AR = target: T1, α1B-AR (Mesocricetus auratus, UniProt P18841); experiment: [3H]Prazosin competition/saturation binding on COS-1 membranes expressing α1B-AR; design: species or system rodent; settings: [3H]Prazosin 200 pM, COS-1 membranes
T1 construct: expressed in transfected cells; host or cells: COS-1
T1 sequence (P18841 1-515): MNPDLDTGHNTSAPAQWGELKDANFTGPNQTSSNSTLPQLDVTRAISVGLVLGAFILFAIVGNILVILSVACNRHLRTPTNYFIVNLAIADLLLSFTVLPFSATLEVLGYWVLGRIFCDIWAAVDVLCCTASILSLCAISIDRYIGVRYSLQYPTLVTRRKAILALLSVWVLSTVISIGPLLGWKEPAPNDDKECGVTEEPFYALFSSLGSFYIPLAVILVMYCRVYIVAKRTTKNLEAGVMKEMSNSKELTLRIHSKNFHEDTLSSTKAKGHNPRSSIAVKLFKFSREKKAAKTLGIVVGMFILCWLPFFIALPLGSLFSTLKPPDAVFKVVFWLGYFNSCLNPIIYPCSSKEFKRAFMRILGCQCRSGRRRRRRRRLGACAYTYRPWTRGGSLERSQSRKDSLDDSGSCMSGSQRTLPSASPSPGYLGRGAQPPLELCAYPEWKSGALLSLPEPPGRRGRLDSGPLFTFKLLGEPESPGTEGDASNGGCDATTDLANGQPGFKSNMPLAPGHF
Description: (§1) COS-1 cells (American Type Culture Collection, Manassas, VA) were cultured in Dulbecco's modified Eagle's medium (DMEM) supplemented with 10% (v/v) heat inactivated fetal bovine serum (FBS), 100 µg ml^−1 penicillin and 100 µg ml^−1 streptomycin. Cells were maintained and passaged upon reaching confluence by standard cell culture techniques. pMT4 plasmids containing rodent α1-AR (a kind gift from Prof R Graham, Victor Chang Cardiac Research Institute, Australia) were used to transfect cells. Transient expression in COS-1 cells was accomplished using two techniques; the diethylaminoethane-dextran (DEAE-dextran) and Lipofectamine 2000 (Invitrogen, Carlsbad, CA, USA) methods. Briefly, the DEAE-dextran method involved washing of cells with phosphate buffered saline (PBS), followed by the addition of the DNA mixture (12–25 µg/4×10^6 cells) in DEAE-dextran (10 mg ml^−1) to cells at 60–80% confluency. Following a 3 h incubation, a PBS wash with 10% DMSO was used to shock the cells. Cells were harvested 72 h post transfection. For the Lipofectamine 2000 method, cells were incubated for 12 h with Opti-MEM (GIBCO BRL, Gaithersburg, MD, USA) containing Lipofectamine 2000.
(§2) Membranes were prepared as described previously. Briefly, COS-1 cells were transiently transfected using the DEAE-dextran method. […] Protein concentration was determined using Bradford reagent (Sigma, St Louis, MO, USA).
(§3) For all binding experiments, the reaction mixture was incubated for 1 h at room temperature, stopped by the addition of 4°C PBS and filtered with a Brandel cell harvester (Gaithersburg, MD, USA) on GF/C filters. Nonspecific binding was defined as binding in the presence of 100 µM phentolamine hydrochloride.
(§4) Nonlinear regression analysis of saturation and competition binding assay data was performed using the […] curve fitting program GraphPad Prism (San Diego, CA, USA). […] The competitive binding data for each ligand was tested for both one and two -site binding.

α1D-AR = target: T2, α1D-AR (Rattus norvegicus, UniProt P23944); experiment: [3H]Prazosin competition/saturation binding on COS-1 membranes expressing α1D-AR; design: species or system rodent; settings: [3H]Prazosin 200 pM
T2 construct: expressed in transfected cells; host or cells: COS-1
T2 sequence (P23944 1-561): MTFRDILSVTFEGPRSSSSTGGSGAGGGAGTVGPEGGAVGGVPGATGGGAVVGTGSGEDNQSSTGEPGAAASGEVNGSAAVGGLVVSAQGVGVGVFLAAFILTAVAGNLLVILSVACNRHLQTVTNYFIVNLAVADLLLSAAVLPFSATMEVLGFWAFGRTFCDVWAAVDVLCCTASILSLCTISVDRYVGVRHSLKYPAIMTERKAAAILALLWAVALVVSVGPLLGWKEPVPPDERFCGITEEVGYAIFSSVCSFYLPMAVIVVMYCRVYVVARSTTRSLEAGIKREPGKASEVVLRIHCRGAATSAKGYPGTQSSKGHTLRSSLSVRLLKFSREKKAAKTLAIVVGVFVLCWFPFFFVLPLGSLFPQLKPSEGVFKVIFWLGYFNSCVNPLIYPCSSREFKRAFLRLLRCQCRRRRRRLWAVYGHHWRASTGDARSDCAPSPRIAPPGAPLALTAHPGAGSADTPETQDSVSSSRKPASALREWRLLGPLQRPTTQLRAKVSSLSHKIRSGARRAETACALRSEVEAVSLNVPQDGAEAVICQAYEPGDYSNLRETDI
Description: as §1, §2, §3, §4

α1A-AR = target: T3, α1A-AR (Rattus norvegicus, UniProt P43140); experiment: [3H]Prazosin competition/saturation binding on COS-1 membranes expressing α1A-AR; design: species or system rodent; settings: [3H]Prazosin 200 pM, COS-1 membranes
T3 construct: expressed in transfected cells; host or cells: COS-1
T3 sequence (P43140 1-466): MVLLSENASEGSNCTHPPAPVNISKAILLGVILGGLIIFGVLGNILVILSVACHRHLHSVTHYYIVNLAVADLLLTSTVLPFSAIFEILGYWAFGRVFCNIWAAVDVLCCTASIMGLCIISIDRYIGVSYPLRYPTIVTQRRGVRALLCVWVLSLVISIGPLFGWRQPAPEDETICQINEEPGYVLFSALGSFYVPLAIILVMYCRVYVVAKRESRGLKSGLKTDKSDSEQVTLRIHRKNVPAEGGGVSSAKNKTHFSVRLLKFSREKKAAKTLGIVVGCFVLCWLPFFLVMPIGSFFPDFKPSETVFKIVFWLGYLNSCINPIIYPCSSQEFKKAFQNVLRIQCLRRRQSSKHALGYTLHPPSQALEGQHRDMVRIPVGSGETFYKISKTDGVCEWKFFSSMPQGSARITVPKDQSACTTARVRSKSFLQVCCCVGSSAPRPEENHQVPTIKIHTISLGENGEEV
Description: as §1, §2, §3, §4

all α1-AR subtypes = target: all α1-AR subtypes; design: method as in PMID 9249248; settings: cited from earlier work
[1] = antilog of mean pKi, Cheng-Prusoff, read-out: Ki α1B-AR
[2] = pKi = -Log Ki, read-out: pKi α1B-AR (converted)
[3] = antilog of mean pKi, Cheng-Prusoff, read-out: Ki α1D-AR
[4] = pKi = -Log Ki, read-out: pKi α1D-AR (converted)
[5] = antilog of mean pKi, Cheng-Prusoff, read-out: Ki α1A-AR
[6] = pKi = -Log Ki, read-out: pKi α1A-AR (converted)

| SMILES | Ki (α1B-AR; [1]) | Ki (α1B-AR; [2]) | Ki (α1D-AR; [3]) | Ki (α1D-AR; [4]) | Ki (α1A-AR; [5]) | Ki (α1A-AR; [6]) | Ki (all α1-AR subtypes) |
| --- | --- | --- | --- | --- | --- | --- | --- |
| CCCCC(O)CN1CCC(Cc2ccccc2)CC1 (stereo not drawn) [Compound 6] | 17 µM | 13.5 µM | 5.9 µM | 5.5 µM | 5.22 µM | 4.9 µM | – |
| Cc1cc(CN2CCCN(C(=S)Nc3ccccc3C(F)(F)F)CC2)no1 [Compound 4] | > 100 µM | > 100 µM | > 100 µM | > 100 µM | > 100 µM | > 100 µM | – |
| COc1cc2nc(N3CCN(C(=O)c4ccco4)CC3)nc(N)c2cc1OC [prazosin] | – | – | – | – | – | – | ~0.0001 µM |
| Cc1ccc(C(=O)/C(S)=C(\Nc2cccc(Cl)c2)[n+]2ccccc2)cc1 [Compound 10] | > 100 µM | > 100 µM | > 100 µM | > 100 µM | > 100 µM | > 100 µM | – |
| Cc1cccc(CN2CCCN(C(=S)NCCN3CCOCC3)CC2)n1 [Compound 5] | > 100 µM | > 100 µM | > 100 µM | > 100 µM | > 100 µM | > 100 µM | – |
| CN(C)CC(C(=O)c1ccc(Br)cc1)C(Br)c1ccccc1 (stereo not drawn) [Compound 7] | 38.5 µM | 17 µM | – | 9.77 µM | 20.3 µM | 14.8 µM | – |

Reference: PMC3091868, “A Novel Structural Framework for α1A/D-Adrenoceptor Selective Antagonists Identified Using Subtype Selective Pharmacophores” (PLoS ONE, 2011)
